Results published in patent US10981894B2, “Melanocortin subtype-2 receptor (MC2R) antagonists and uses thereof” (Crinetics Pharmaceuticals, Inc., priority 2018, dated 2021).

These molecules were tested against hMC2 receptor (Homo sapiens, UniProt Q01718) (assay: hMC2 membrane binding assay ([125I]ACTH (1-39) Tyr23, SPA)). Details: crude hMC2R membranes from CRE-bla-CHO-K1 cells expressing hMC2 receptor and hMRAP; [125I]ACTH (1-39) Tyr23 0.2 nM; 1.5 hours at room temperature; read-out: MC2R binding potency.
Set-up: scale not given here
Outline: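 CRE-bla-CHO-K1 membranes co-expressing hMC2 receptor and hMRAP, preincubated with WGA PVT SPA beads in pH 7.4 HEPES/MgCl2/CaCl2/0.2% BSA buffer. Compounds (typically 0–10,000 nM final) compete with 0.2 nM [125I]ACTH(1-39) Tyr23 for 1.5 h at room temperature. SPA counts give Ki by non-linear regression.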

Sequence of hMC2 receptor (Q01718 whole entry): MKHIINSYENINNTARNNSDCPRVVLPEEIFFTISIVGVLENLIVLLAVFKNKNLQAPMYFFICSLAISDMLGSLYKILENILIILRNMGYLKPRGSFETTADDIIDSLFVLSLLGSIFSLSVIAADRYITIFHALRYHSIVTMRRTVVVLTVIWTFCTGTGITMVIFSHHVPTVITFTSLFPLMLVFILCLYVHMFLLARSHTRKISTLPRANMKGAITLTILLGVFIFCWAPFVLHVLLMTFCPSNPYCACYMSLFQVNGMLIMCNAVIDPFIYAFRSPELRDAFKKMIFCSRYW
Sequence of hMC2 receptor (Q8TCY5 whole entry partner): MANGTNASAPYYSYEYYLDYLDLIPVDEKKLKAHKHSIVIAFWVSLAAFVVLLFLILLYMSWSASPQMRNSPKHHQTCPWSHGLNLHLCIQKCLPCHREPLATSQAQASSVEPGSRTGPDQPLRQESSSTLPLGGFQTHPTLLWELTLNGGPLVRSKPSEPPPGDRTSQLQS

SMILES	Ki
CCOc1ncccc1-c1ccc(N2CCN(C(=O)N3CCC[C@H]3C(F)(F)F)C[C@H]2CC)c(C(=O)NC[C@H]2CCN2C)n1 [Compound 1-386, 2′-ethoxy-5-[(2R)-2-ethyl-4-[(2S)-2-(trifluoromethyl)pyrrolidine-1-carbonyl]piperazin-1-yl]-N-{[(2R)-1-methylazetidin-2-yl]methyl}-[2,3′-bipyridine]-6-carboxamide]	10 to 100 nM
CCOc1ccccc1-c1ccc(N2CCN(C(=O)N3CCC[C@H]3C(F)(F)F)C[C@H]2CC)c(C(=O)NC[C@@H]2CCN2C)n1 [Compound 1-387, 6-(2-ethoxyphenyl)-3-[(2R)-2-ethyl-4-[(2S)-2-(trifluoromethyl)pyrrolidine-1-carbonyl]piperazin-1-yl]-N-{[(2S)-1-methylazetidin-2-yl]methyl}pyridine-2-carboxamide]	< 10 nM
CCOc1ncccc1-c1ccc(N2CCN(C(=O)N3CCC[C@H]3C(F)(F)F)C[C@H]2CC)c(C(=O)N[C@@H]2CCN(C)C2)n1 [Compound 1-372, 2′-ethoxy-5-[(2R)-2-ethyl-4-[(2S)-2-(trifluoromethyl)pyrrolidine-1-carbonyl]piperazin-1-yl]-N-[(3R)-1-methylpyrrolidin-3-yl]-[2,3′-bipyridine]-6-carboxamide]	< 10 nM
CCOc1ncccc1-c1ccc(N2CCN(C(=O)c3ccc(C)cc3N3CCC(CN)C3)C[C@H]2CC)c(C(=O)NCCN)c1 (stereo partly drawn) [Compound 1-104, N-(2-aminoethyl)-2-[(2R)-4-{2-[3-(aminomethyl)pyrrolidin-1-yl]-4-methylbenzoyl}-2-ethylpiperazin-1-yl]-5-(2-ethoxypyridin-3-yl)benzamide]	< 10 nM
CCOc1ncccc1-c1ccc(N2CCN(C(=O)OC(C(C)(C)C)C(F)(F)F)C[C@H]2CC)c(C(=O)N[C@@H]2CCN(C)C2)n1 (stereo partly drawn) [Compound 1-376, 1,1,1-trifluoro-3,3-dimethylbutan-2-yl (3R)-4-(2′-ethoxy-6-{[(3R)-1-methylpyrrolidin-3-yl]carbamoyl}-[2,3′-bipyridin]-5-yl)-3-ethylpiperazine-1-carboxylate]	< 10 nM
CCOc1ncccc1-c1ccc(N2CCN(C(=O)c3ccc(F)cc3C(F)F)C[C@H]2CC)c(C(=O)NCCNC)c1F [Compound 1-177, 6-[(2R)-4-[2-(difluoromethyl)-4-fluorobenzoyl]-2-ethylpiperazin-1-yl]-3-(2-ethoxypyridin-3-yl)-2-fluoro-N-[2-(methylamino)ethyl]benzamide]	< 10 nM
CC[C@@H]1CN(C(=O)c2ccc(C(F)(F)F)cc2Cl)CCN1c1ccc(-c2ccccc2OC)cc1C(=O)NCCN [Compound 1-2, N-(2-aminoethyl)-4-[(2R)-4-[2-chloro-4-(trifluoromethyl)benzoyl]-2-ethylpiperazin-1-yl]-2′-methoxy-[1,1′-biphenyl]-3-carboxamide]	< 10 nM
CCOc1ncccc1-c1ccc(N2CCN(C(=O)c3ccc(Cl)cc3C(F)F)C[C@H]2CC)c(C(=O)NCCN(C)C)n1 [Compound 1-210, 5-[(2R)-4-[4-chloro-2-(difluoromethyl)benzoyl]-2-ethylpiperazin-1-yl]-N-[2-(dimethylamino)ethyl]-2′-ethoxy-[2,3′-bipyridine]-6-carboxamide]	< 10 nM
CCOc1ncccc1-c1ccc(N2CCN(C(=O)c3ccc(Cl)cc3C(F)(F)F)C[C@H]2CC)c(C(=O)NC2CN(C)C2)n1 [Compound 1-212, 5-[(2R)-4-[4-chloro-2-(trifluoromethyl)benzoyl]-2-ethylpiperazin-1-yl]-2′-ethoxy-N-(1-methylazetidin-3-yl)-[2,3′-bipyridine]-6-carboxamide]	< 10 nM
CC[C@@H]1CN(C(=O)c2ccc(Cl)cc2C(F)(F)F)CCN1c1ccc(-c2ccccc2OC)cc1CN [Compound 2-3, 1-{4-[(2R)-4-[4-chloro-2-(trifluoromethyl)benzoyl]-2-ethylpiperazin-1-yl]-2′-methoxy-[1,1′-biphenyl]-3-yl}methanamine]	10 to 100 nM
CCOc1ncccc1-c1ccc(N2CCN(C(=O)c3ccc(OC)nc3C(F)(F)F)C[C@H]2CC)c(C(=O)N[C@H]2CNC[C@H]2F)n1 [Compound 1-291, 2′-ethoxy-5-[(2R)-2-ethyl-4-[6-methoxy-2-(trifluoromethyl)pyridine-3-carbonyl]piperazin-1-yl]-N-[(3S,4R)-4-fluoropyrrolidin-3-yl]-[2,3′-bipyridine]-6-carboxamide]	< 10 nM

Now from value to molecule:

Ki	SMILES
< 10 nM	CCOc1ncccc1-c1ccc(N2CCN(C(=O)N3CCCC[C@H]3C(F)(F)F)C[C@H]2CC)c(C(=O)N[C@H]2CCN(C)C2)n1 [Compound 1-434, 2′-ethoxy-5-[(2R)-2-ethyl-4-[(2S)-2-(trifluoromethyl)piperidine-1-carbonyl]piperazin-1-yl]-N-[(3S)-1-methylpyrrolidin-3-yl]-[2,3′-bipyridine]-6-carboxamide]
< 10 nM	CCOc1ncccc1-c1ccc(N2CCN(C(=O)c3ccc(F)cc3N3CC[C@H](NC)C3)C[C@H]2CC)c(C(=O)N[C@@H]2CCNC2)c1 [Compound 1-101, 5-(2-ethoxypyridin-3-yl)-2-[(2R)-2-ethyl-4-{4-fluoro-2-[(3S)-3-(methylamino)pyrrolidin-1-yl]benzoyl}piperazin-1-yl]-N-[(3R)-pyrrolidin-3-yl]benzamide]
< 10 nM	CCOc1ncccc1-c1ccc(N2CCN(C(=O)C3(C(F)(F)F)CCCC3)C[C@H]2CC)c(C(=O)NCCN2CCC2)n1 [Compound 1-337, N-[2-(azetidin-1-yl)ethyl]-2′-ethoxy-5-[(2R)-2-ethyl-4-[1-(trifluoromethyl)cyclopentanecarbonyl]piperazin-1-yl]-[2,3′-bipyridine]-6-carboxamide]
< 10 nM	CCOc1ccccc1-c1ccc(N2CCN(C(=O)N3CCc4cccc(C#N)c43)C[C@H]2CC)c(C(=O)NC2CN(C)C2)n1 [Compound 1-414, 3-[(2R)-4-(7-cyano-2,3-dihydro-1H-indole-1-carbonyl)-2-ethylpiperazin-1-yl]-6-(2-ethoxyphenyl)-N-(1-methylazetidin-3-yl)pyridine-2-carboxamide]
< 10 nM	CCOc1ncccc1-c1ccc(N2CCN(C(=O)c3ccc(F)cc3N3CCC(CN)C3)C[C@H]2CC)c(C(=O)NCCN)c1 (stereo partly drawn) [Compound 1-51, N-(2-aminoethyl)-2-[(2R)-4-{2-[3-(aminomethyl)pyrrolidin-1-yl]-4-fluorobenzoyl}-2-ethylpiperazin-1-yl]-5-(2-ethoxypyridin-3-yl)benzamide]
< 10 nM	CCOc1ccccc1-c1ccc(N2CCN(C(=O)N3CCC[C@@H]3C(C)(C)C)C[C@H]2CC)c(C(=O)N[C@@H]2CCNC2)n1 [Compound 1-356, 3-[(2R)-4-[(2R)-2-tert-butylpyrrolidine-1-carbonyl]-2-ethylpiperazin-1-yl]-6-(2-ethoxyphenyl)-N-[(3R)-pyrrolidin-3-yl]pyridine-2-carboxamide]
< 10 nM	CCOc1ncccc1-c1ccc(N2CCN(C(=O)c3ccc(Cl)cc3C(F)(F)F)C[C@H]2CC)c(C(=O)NCCc2ncc[nH]2)c1F [Compound 1-116, 6-[(2R)-4-[4-chloro-2-(trifluoromethyl)benzoyl]-2-ethylpiperazin-1-yl]-3-(2-ethoxypyridin-3-yl)-2-fluoro-N-[2-(1H-imidazol-2-yl)ethyl]benzamide]
< 10 nM	CCOc1ncccc1-c1ccc(N2CCN(C(=O)c3ccc(Cl)cc3C(F)F)C[C@H]2CC)c(C(=O)NCCNC)c1F [Compound 1-183, 6-[(2R)-4-[4-chloro-2-(difluoromethyl)benzoyl]-2-ethylpiperazin-1-yl]-3-(2-ethoxypyridin-3-yl)-2-fluoro-N-[2-(methylamino)ethyl]benzamide]
